Measured values: ChEMBL document CHEMBL1139279, “3,4-Disubstituted indole acylsulfonamides: a novel series of potent and selective human EP3 receptor antagonists” (Bioorg Med Chem Lett, 2009)

Experiments:
[1] = molecular target: T1, Prostaglandin E2 receptor EP3 subtype (Homo sapiens, UniProt P43115); test: Displacement of [3H]PGE2 from human EP3 receptor
T1 sequence (P43115 whole entry): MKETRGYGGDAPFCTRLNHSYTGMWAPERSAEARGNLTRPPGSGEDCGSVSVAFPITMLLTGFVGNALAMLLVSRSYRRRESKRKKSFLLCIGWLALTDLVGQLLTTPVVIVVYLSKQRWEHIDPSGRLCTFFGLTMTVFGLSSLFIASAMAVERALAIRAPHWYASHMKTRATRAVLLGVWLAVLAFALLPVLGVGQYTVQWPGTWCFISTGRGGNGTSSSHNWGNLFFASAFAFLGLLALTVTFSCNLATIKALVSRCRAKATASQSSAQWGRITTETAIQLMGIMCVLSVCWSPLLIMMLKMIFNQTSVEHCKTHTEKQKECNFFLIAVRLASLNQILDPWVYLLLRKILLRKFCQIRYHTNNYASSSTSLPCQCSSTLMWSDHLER

[2] = Metabolic stability in human liver microsomes at 5 uM after 30 mins; assay type: ADME, Microsome; conditions: read-out: Activity
Liver microsomes = test: Metabolic stability in rat liver microsomes at 5 uM after 30 mins; assay type: ADME, Microsome; conditions: 0.5 h
[3] = molecular target: T1, Prostaglandin E2 receptor EP3 subtype; test: Displacement of [3H]PGE2 from human EP3 receptor in presence of 10% human serum
Homo sapiens [4] = species on record: Homo sapiens; test: Selectivity ratio of IC50 for human IP receptor to IC50 for human EP3 receptor
Homo sapiens [5] = species on record: Homo sapiens; test: Selectivity ratio of IC50 for human FP receptor to IC50 for human EP3 receptor
Homo sapiens [6] = species on record: Homo sapiens; test: Selectivity ratio of IC50 for human EP4 receptor to IC50 for human EP3 receptor
Homo sapiens [7] = species on record: Homo sapiens; test: Selectivity ratio of IC50 for human EP2 receptor to IC50 for human EP3 receptor
Homo sapiens [8] = species on record: Homo sapiens; test: Selectivity ratio of IC50 for human EP1 receptor to IC50 for human EP3 receptor
[9] = molecular target: T2, Prostaglandin E2 receptor EP3 subtype (Mus musculus, UniProt P30557); test: Displacement of [3H]PGE2 from mouse EP3 receptor
T2 sequence (P30557 whole entry): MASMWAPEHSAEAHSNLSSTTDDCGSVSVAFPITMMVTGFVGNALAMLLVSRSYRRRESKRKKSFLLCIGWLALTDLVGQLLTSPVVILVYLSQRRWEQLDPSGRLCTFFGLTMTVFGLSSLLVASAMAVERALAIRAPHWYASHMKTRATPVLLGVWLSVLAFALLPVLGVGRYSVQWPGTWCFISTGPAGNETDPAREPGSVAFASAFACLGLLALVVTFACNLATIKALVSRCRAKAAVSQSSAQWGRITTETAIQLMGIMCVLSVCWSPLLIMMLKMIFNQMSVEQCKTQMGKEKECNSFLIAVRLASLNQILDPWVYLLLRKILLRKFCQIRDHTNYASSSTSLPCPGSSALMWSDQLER

Rattus norvegicus = species on record: Rattus norvegicus; test: Ex vivo inhibition of platelet aggregation in rat platelet-rich plasma; assay type: functional, organism-based
[10] = molecular target: T1, Prostaglandin E2 receptor EP3 subtype; test: Antagonist activity at human EP3 receptor assessed as cAMP production by cell-based assay; assay type: functional

O=C(COc1cccc2[nH]cc(S(=O)(=O)c3nc[nH]n3)c12)NS(=O)(=O)c1cc(Cl)c(Cl)s1
IC50 [1]: 236 nM

O=C(COc1cccc2[nH]cc(S(=O)(=O)c3ccc4ccccc4n3)c12)NS(=O)(=O)c1cc(Cl)c(Cl)s1
remaining at 0.5 h, 5 µM [2]: 60%
Activity (Liver microsomes): 68%

COc1ccccc1Sc1c[nH]c2cccc(OCC(=O)NS(=O)(=O)c3cc(Cl)c(Cl)s3)c12
IC50 [1]: 24 nM
fold shift [3]: 13.2

NC(=O)Cc1ccc(S(=O)(=O)c2c[nH]c3cccc(OCC(=O)NS(=O)(=O)c4cc(Cl)c(Cl)s4)c23)cc1
IC50 [1]: 27.8 nM
fold shift [3]: 5

O=C(COc1cccc2[nH]cc(Sc3ccc(Cl)cc3)c12)NS(=O)(=O)c1cc(Cl)c(Cl)s1
remaining at 0.5 h, 5 µM [2]: 52%
Activity (Liver microsomes): 14%

O=C(COc1cccc2[nH]cc(Sc3ccccc3Cl)c12)NS(=O)(=O)c1cc(Cl)c(Cl)s1
IC50 [1]: 13.7 nM
fold shift [3]: 5.8

COc1ccc(S(=O)(=O)c2c[nH]c3cccc(OCC(=O)NS(=O)(=O)c4cc(Cl)c(Cl)s4)c23)cc1OC
IC50 [1]: 11.4 nM

Cc1ccc(S(=O)(=O)c2c[nH]c3cccc(OCC(=O)NS(=O)(=O)c4cc(Cl)c(Cl)s4)c23)c(C)c1
IC50 [1]: 5.7 nM
fold shift [3]: 33.2

O=C(COc1cccc2[nH]cc(S(=O)(=O)c3ccc4ccccc4c3)c12)NS(=O)(=O)c1cccc(Cl)c1
IC50 [1]: 5.9 nM

O=C(COc1cccc2[nH]cc(Sc3ccc4ccccc4c3)c12)NS(=O)(=O)c1cccc(Cl)c1
IC50 [1]: 2 nM
fold shift [3]: 2.2
Ratio IC50 (Homo sapiens [4]): 1300
Ratio IC50 (Homo sapiens [5]): 1030
Ratio IC50 (Homo sapiens [6]): 1360
Ratio IC50 (Homo sapiens [7]): 1090
Ratio IC50 (Homo sapiens [8]): 12300

O=C(COc1cccc2[nH]cc(Sc3ccc(Cl)c(Cl)c3)c12)NS(=O)(=O)c1cc(Cl)c(Cl)s1
IC50 [1]: 1.3 nM
fold shift [3]: 1.1
Ratio IC50 (Homo sapiens [4]): 4480
Ratio IC50 (Homo sapiens [5]): 596
Ratio IC50 (Homo sapiens [6]): 1770
Ratio IC50 (Homo sapiens [7]): 950
Ratio IC50 (Homo sapiens [8]): 10800
remaining at 0.5 h, 5 µM [2]: 46%
Activity (Liver microsomes): 74%
IC50 [9]: 15.5 nM
IC50 (Rattus norvegicus): 358 nM
IC50 [10]: 0.3 nM

O=C(COc1cccc2[nH]cc(S(=O)(=O)c3ccc(Cl)c(Cl)c3)c12)NS(=O)(=O)c1cc(Cl)c(Cl)s1
IC50 [1]: 4.7 nM
fold shift [3]: 3.6
Ratio IC50 (Homo sapiens [4]): 2710
Ratio IC50 (Homo sapiens [5]): 384
Ratio IC50 (Homo sapiens [6]): 4220
Ratio IC50 (Homo sapiens [7]): 1450
Ratio IC50 (Homo sapiens [8]): 5190
remaining at 0.5 h, 5 µM [2]: 69.7%
Activity (Liver microsomes): 68.8%
IC50 [9]: 2 nM
IC50 (Rattus norvegicus): 136 nM
IC50 [10]: 1 nM

O=C(COc1cccc2[nH]cc(S(=O)(=O)c3ccc(F)cc3Cl)c12)NS(=O)(=O)c1cc(Cl)c(Cl)s1
IC50 [1]: 20.2 nM
fold shift [3]: 10.7

Cc1ccc(Sc2c[nH]c3cccc(OCC(=O)NS(=O)(=O)c4cc(Cl)c(Cl)s4)c23)c(C)c1
IC50 [1]: 1.3 nM
fold shift [3]: 5.2
Ratio IC50 (Homo sapiens [4]): 31600
Ratio IC50 (Homo sapiens [5]): 401
Ratio IC50 (Homo sapiens [6]): 1860
Ratio IC50 (Homo sapiens [7]): 1290
Ratio IC50 (Homo sapiens [8]): 13100

Cn1c(Sc2c[nH]c3cccc(OCC(=O)NS(=O)(=O)c4cc(Cl)c(Cl)s4)c23)nc2ccccc21
IC50 [1]: 2.5 nM
fold shift [3]: 10.5

COc1ccc(S(=O)(=O)c2c[nH]c3cccc(OCC(=O)NS(=O)(=O)c4cc(Cl)c(Cl)s4)c23)cc1
IC50 [1]: 30 nM

COc1ccc(S(=O)(=O)NC(=O)COc2cccc3[nH]cc(S(=O)(=O)c4ccc5ccccc5c4)c23)cc1
IC50 [1]: 544 nM

O=C(COc1cccc2[nH]cc(Sc3ccc4ccccc4n3)c12)NS(=O)(=O)c1cc(Cl)c(Cl)s1
remaining at 0.5 h, 5 µM [2]: 23%
Activity (Liver microsomes): 35%

Cc1nnc(Sc2c[nH]c3cccc(OCC(=O)NS(=O)(=O)c4cc(Cl)c(Cl)s4)c23)s1
IC50 [1]: 36.7 nM

O=C(COc1cccc2[nH]cc(Sc3ccc(Cl)cc3Cl)c12)NS(=O)(=O)c1cc(Cl)c(Cl)s1
IC50 [1]: 27.6 nM
fold shift [3]: 0.2
Ratio IC50 (Homo sapiens [4]): 3350
Ratio IC50 (Homo sapiens [5]): 2030
Ratio IC50 (Homo sapiens [6]): 8880
Ratio IC50 (Homo sapiens [7]): 6230
Ratio IC50 (Homo sapiens [8]): 3520
remaining at 0.5 h, 5 µM [2]: 37%
Activity (Liver microsomes): 0%

O=C(COc1cccc2[nH]cc(Sc3ccc4ccccc4c3)c12)NS(=O)(=O)c1ccccc1Cl
IC50 [1]: 1.4 nM
fold shift [3]: 48.7

COc1ccc(Sc2c[nH]c3cccc(OCC(=O)NS(=O)(=O)c4cc(Cl)c(Cl)s4)c23)cc1
IC50 [1]: 0.5 nM
fold shift [3]: 22.6

O=C(COc1cccc2[nH]cc(Sc3nc4ccccc4s3)c12)NS(=O)(=O)c1cc(Cl)c(Cl)s1
IC50 [1]: 7.6 nM
fold shift [3]: 9.8
Ratio IC50 (Homo sapiens [4]): 1060
Ratio IC50 (Homo sapiens [5]): 300
Ratio IC50 (Homo sapiens [6]): 2390
Ratio IC50 (Homo sapiens [7]): 1660

O=C(COc1cccc2[nH]cc(S(=O)(=O)c3ccc(Cl)cc3)c12)NS(=O)(=O)c1cc(Cl)c(Cl)s1
remaining at 0.5 h, 5 µM [2]: 75%
Activity (Liver microsomes): 98%

O=C(COc1cccc2[nH]cc(Sc3ccc4ccccc4c3)c12)NS(=O)(=O)c1cccs1
IC50 [1]: 3 nM
fold shift [3]: 27.5

O=C(COc1cccc2[nH]cc(S(=O)(=O)c3ccc(Cl)cc3Cl)c12)NS(=O)(=O)c1cc(Cl)c(Cl)s1
remaining at 0.5 h, 5 µM [2]: 79%
Activity (Liver microsomes): 72%

Cn1nnnc1S(=O)(=O)c1c[nH]c2cccc(OCC(=O)NS(=O)(=O)c3cc(Cl)c(Cl)s3)c12
IC50 [1]: 88.4 nM

Cn1nnnc1Sc1c[nH]c2cccc(OCC(=O)NS(=O)(=O)c3cc(Cl)c(Cl)s3)c12
IC50 [1]: 8.2 nM
fold shift [3]: 58.3
